Columns and labels:
[1] = test system: Chinese hamster ovary (CHO) cells; assay: Method 7: Micronucleus Assay; assay type: cell-based; design: key: Negative: A negative result identifies no genotoxic hazard defined by the assays specific endpoint; Positive: A positive result identifies a genotoxic hazard defined by the assays specific endpoint; Equivocal: fails to display a negative or positive result as defined by established evaluation criteria; Inconclusive: the test compound has been evaluated in an invalid assay test; settings: in vitro, with and without S9
Procedure: Method 7: Micronucleus Assay
An in vitro micronucleus assay can be used to determine the mutagenic potential of a test compound. This assay detects chromosome abnormalities resulting from exposure to a test compound by measuring the formation of small membrane-bound DNA fragments such as micronuclei in the cytoplasm of interphase cells.
The assay is conducted using Chinese hamster ovary (CHO) cells under different test conditions in the absence and presence of metabolic activation. Concordance in outcomes between this screening assay and in vitro cytogenetics is around 85%. Direct (−S9) testing is conducted using 24 hour or 3 hour continuous treatments, whereas testing with metabolic activation (+S9) involves a 3 hour treatment. Clastogenicity is indicated by an increase in numbers of micronucleated cells in the first interphase after exposure (in cytokinesis-blocked binucleated cells). The results are compared to the level of cytotoxicity (measured by the proportion of binucleated cells) a test compound produces. […] A test compound displaying a negative response has not fulfilled specific evaluation criteria for the assay which may include one or both of the following: 1) a reproducible concentration dependent increase in the specific assay endpoint when compared to a negative (vehicle) control and/or 2) one or more test concentrations achieving a minimum fold increase in the specific endpoint over controls. • Positive—A positive result identifies a genotoxic hazard defined by the assays specific endpoint (ex. positive in vitro micronucleus). A test compound displaying a positive response has fulfilled specific evaluation criteria for the assay which may include one or both of the following: 1) a reproducible concentration dependent increase in the specific assay endpoint when compared to a negative (vehicle) control and/or 2) one or more test concentrations achieving a minimum fold increase in the specific endpoint over controls. • Equivocal—An equivocal result is reserved for situations where the test compound has been evaluated in a valid assay test or tests (i.e. assay acceptability criteria satisfactory), but fails to display a negative or positive result as defined by established evaluation criteria. This may convey the presence of a weak positive response that requires additional repeat testing or eventual confirmatory testing case-by-case. • Inconclusive—An inconclusive result is reserved for situations where the test compound has been evaluated in an invalid assay test (i.e. assay acceptability criteria unsatisfactory for technical reasons, ex. negative or positive controls fail to respond appropriately). Repeat testing is recommended in order to establish a valid assay test result.

PDE5 enzyme = molecular target: T1, PDE5 enzyme (Homo sapiens, UniProt O76074); assay: Method 1: Human Platelet PDE5 Enzyme Inhibition Scintillation Proximity Assay; assay type: biochemical; settings: METHOD 1: PDE5 IC50, Table B, WO2004096810 examples
T1 construct: The PDE5 enzyme isolated from human platelets; from tissue; host or cells: human platelets
Summary of the method: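 IC50 fitted from 10-point half-log dose-response curves run in duplicate, with inhibition relative to uninhibited controls. SPA beads capture [3H]GMP produced when platelet-derived PDE5 acts for 60 min at 30 °C on 500 nM cGMP (3:1 cold:labelled) in pH 7.4 Tris/MgCl2/BSA buffer.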

| Structure (SMILES) | METHOD 7: MICRONUCLEUS ASSAY [1] | IC50 (PDE5 enzyme) | METHOD 7: MI[…] [1] |
| --- | --- | --- | --- |
| Cc1ccnc(Nc2nc(N3CCC(C(=O)O)CC3)nc3c(C)nn(CCOCC(F)(F)F)c23)c1 [WO2004096810 Example 261] | Positive | 0.57 nM | – |
| Cc1cc(Nc2nc(N3CCC(C(=O)O)CC3)nc3c(C)nn(CCOCC(F)(F)F)c23)ncn1 [WO2004096810 Example 262] | – | 0.93 nM | Equivocal |
| CCc1nn(CCOCC(F)(F)F)c2c(Nc3cc(C)ncn3)nc(N3CCC(C(=O)O)CC3)nc12 [WO2004096810 Example 263] | Positive | 0.27 nM | – |

Reference: patent US8518956B2, “1-(1-(2-ethoxyethyl)-3-ethyl-7-(4-methylpyridin-2-ylamino)-1H-pyrazolo[4,3-d]pyrimidin-5-yl) piperidine-4-carboxylic acid and salts thereof” (priority 2005, dated 2013)
